Columns and labels:
endogenous CB2R = target: T1, endogenous CB2R (Homo sapiens, UniProt P34972); assay: pERK assay in Jurkat cells; assay type: cell-based
T1 construct: endogenous CB2R in human Jurkat cells; endogenous in cells; host or cells: Jurkat cells
Procedure: ERK phosphorylation in response to RG7774 treatment was measured in Jurkat cells as described in ([Saroz et al., 2019]) using the AlphaLISA SureFire Ultra p-Erk1/2 assay (PerkinElmer, Waltham, MA, United States). Cells (200,000 per 96 well plate) were seeded in 40 μL RPMI 1640 assay medium (Fisher Scientific, Schwerte, Germany) containing 10% FCS, 2 mM L-Glu, and 25 mM HEPES) and incubated for 1 h at 37°C in 5% CO2. Cells were treated with increasing concentrations of RG7774 in 40 μL assay medium. Plates were shaken for 30 s (sec) at 450 rpm, incubated for 2 min at 37°C in 5% CO2, and placed on ice. Ice-cold lysis buffer (20 μL 5x) (supplied with the assay kit) was added, plates were shaken (500 rpm) for 10 min at 4°C, and 10 μL of lysate was transferred to a 384-well Optiplate (PerkinElmer, Waltham, MA, United States). The AlphaLISA assay was performed according to the manufacturer’s protocol. Plates were read using Tecan Infinite M1000Pro (excitation 680 nm for 100 ms, integration time 300 ms, and emission 615 nm).

pKa = assay type: physicochemical; conditions: basic
Text: TABLE 2 Physicochemical and ADMET profile for RG7774.

[1] = system: LPS-induced vascular leakage; assay: LPS-induced vascular permeability in mice with EIU (fluorophotometry); assay type: in vivo, C57Bl6/J mice
Procedure: Twenty-four female C57Bl6/J mice, 10 weeks old and weighing 18–20 g (Charles River, Sulzfeld, Germany) were housed in individually ventilated GM500 cages (Tecniplast, Pontremoli, Italy) with a maximum density of n = 4 mice with the same litter and sex. The room was kept at 20°C–24°C with 50%–60% humidity and a 12/12 h light-dark cycle. Animals were held on a standard mouse diet with ad libitum access to food and water.
Mice were anesthetized with isoflurane 3% in 100% O2, a drop of 1% Novesin 0.4% (Omnivision, Pucheim, Germany) and a drop of Tropicamide 1% w/v (Bausch + Lomb Incorporated, Kingston, United Kingdom). Eyes were subsequently cleaned with povidone iodine 5% Ophthalmic Prep Solution (Alcon, Geneva, Switzerland) and were immediately pre-punctured with a 30-gauge needle. Both eyes were injected with a single 1 µL IVT injection of 1 ng LPS (Sigma-Aldrich, St. Louis, MO, United States) or a single injection of Dulbecco’s phosphate buffered saline (PBS) (Fisher Scientific, Schwerte, Germany) (vehicle control) using a Nanofil syringe connected to a 34-gauge needle.
Vehicle solution [w/w] was prepared using 0.1% hydroxyethyl cellulose, 1.0% polysorbate 80, 0.18% methylparaben, and 0.02% propylparaben in 10 mM citrate (pH 6.0). RG7774 (0.6 and 2.0 mg/mL) was added to freshly prepared vehicle, stirred on a magnetic stirrer for at least 15 min, and a volume of 5 mL/kg was administered directly to the stomach of each EIU mouse using a 1 mL syringe with an oral gavage needle. Gavage was performed twice daily (6 mg/kg/day BID and 20 mg/kg/day BID) on the evening and morning prior to LPS injection, on the evening after LPS injection, and on the morning before fluorophotometry.
Mice were anesthetized 24 h after receiving LPS or vehicle control using subcutaneous (SC) injections of fentanyl 0.05 mg/kg, medetomidine 0.5 mg/kg, and midazolam 5 mg/kg. […] Fundus infrared and fundus fluorescein angiography (FFA) images of both eyes were recorded 30 min later using optical coherence tomography (OCT)/FFA (Spectralis HRA-OCT, Heidelberg Engineering, Heidelberg, Germany) with a 55° lens focused on the optic nerve with the optic disc in the center of the image to obtain sharp images of the fundus. […] The supernatant (10 µL) was diluted in 990 µL PBS in a microcuvette (PS Micro Photometer Cuvette 2 mL, 10 mm × 10 mm × 45 mm; LP Italiana, Milan, Italy) and samples were analyzed in duplicate using the FM-2 Fluorotron (450–490 nm excitation; 520–600 nm emission detection). […]
To quantify fluorotron measurements, raw files were generated, exported as txt. files, and plotted using Microsoft Excel. The average area under the curve (AUC) was calculated for 5 steps in each of the regions of the scans corresponding to retina, vitreous, and anterior chamber peaks. […]

T1 sequence (P34972 whole entry): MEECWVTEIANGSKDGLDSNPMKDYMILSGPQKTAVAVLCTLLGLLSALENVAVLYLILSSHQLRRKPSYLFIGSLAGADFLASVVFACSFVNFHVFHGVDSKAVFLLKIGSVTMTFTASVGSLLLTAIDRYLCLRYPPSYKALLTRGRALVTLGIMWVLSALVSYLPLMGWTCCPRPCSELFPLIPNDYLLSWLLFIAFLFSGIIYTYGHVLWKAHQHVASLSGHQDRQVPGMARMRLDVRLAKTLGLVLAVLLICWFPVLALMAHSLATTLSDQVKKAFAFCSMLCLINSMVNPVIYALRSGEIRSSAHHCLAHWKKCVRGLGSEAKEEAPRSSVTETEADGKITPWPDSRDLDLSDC

With `Cn1nnnc1Cn1nnc2c(N3CC[C@H](O)C3)nc(C(C)(C)C)nc21` [RG7774, (S)-1-(5-tert-butyl-3-[(1-methyl-1H-tetrazol-5-yl)methyl]-3H-[1,2,3]triazolo[4,5-d]pyrimidin-7-yl)pyrrolidin-3-ol] the EC50 (endogenous CB2R) was 38.5 ± 15 nM, the pKa (pKa) was 2.63 and the “reduction of LPS-induced vascular leakage in the retina versus vehicle control” value ([1]; 6 mg/kg/day oral BID) was 102%. The “reduction of LPS-induced vascular leakage in the vitreous” value ([1]; 6 mg/kg/day oral BID) was 74%, the “reduction of LPS-induced vascular leakage in the retina versus vehicle control” value ([1]; 20 mg/kg/day oral BID) was 106% and the “reduction of LPS-induced vascular leakage in the vitreous” value ([1]; 20 mg/kg/day oral BID) was 76%.

Source: publication PMC11272598, “RG7774 (Vicasinabin), an orally bioavailable cannabinoid receptor 2 (CB2R) agonist, decreases retinal vascular permeability, leukocyte adhesion, and ocular inflammation in animal models” (Frontiers in Pharmacology, 2024)
